Patent publication US8940324B2, “Octenidine composition” (Artan Holding AG, priority 2008, dated 2015)
“Also recorded” adds a separate entry of the source.

Key:
U373 cells = experiment: Determination of cell adhesion (cell detachment assay with Methyl violet); format: cell-based, human; conditions: for effect on cell adhesion; additives: effect on the Octenisept® induced reduction: U373, 1 hour, Octenisept® alone or 1:1 with additive 5%, 5 μl to 100 μl medium, FIG. 3
Method: The humane glioblastoma cell line U373 was cultured in Dulbecco's Modified Eagle Medium (DMEM) supplemented with 10% PCS (Gibco™), 2 mM glutamine (PPA) and 100 U/ml penicillin/streptomycin (PAA) at 37° and 5% CO2. The cells were cultivated in monolayer and passaged at 80% confluence. Before carrying out the cell adhesion experiments the cells were transferred onto 96-well plates and brought to confluence.
Cell adhesion was carried out as described in detail in the quotation (Uchide, N. and Toyoda H., (2007) J Immunol Methods, 328 (1-2): 215-9). U373 cells were incubated in 96-well plates with Octenisept® (final concentration 5% (v/v) Octenisept®, this equates 0.005% octenidine dihydrochloride) alone or with the specified additives (5% v/v) for 1 hour in glucose-free Leibovitz medium. After removing the supernatant the standardized washing procedure was executed 3 times after which PBS was added with a motor-controlled pipet which led to the detachment of non-adhesive cells. Afterward only those cells whose matrix had formed a solid connection were fixed with glutaraldehyde and after removal of the glutaraldehyde stained with Methyl violet. The precipitated stain was dissolved with an SDS buffer and the extinction was measured at 550 nm in an ELISA plate reader.
It was now examined whether this additive ensures effects which can contribute to the improvement of wound healing. U373 cells were incubated for 1 hour in Leibovitz medium with Octenisept® alone or with additives (1:1 with glucose 5% or NaCl 0.9%). In each case 5 μl of the respective solution was added to 100 μl of medium. After washing and staining of the adherent cells with crystal violet the extinction was measured at 550 nm (FIG. 2a). The extinction of the controls was set to 1. Statistical significances were determined with Bonferroni's Multiple Comparison Test (**: p<0.01, ***<0.001).
Polyalcohols form a broad compound class and it was therefore examined whether single subgroups have different effects in the adhesion test. U373 cells were incubated in Leibovitz medium with 5 μl additive to 100 μl medium in each case for 1 hour with Octenisept® alone (−) or with additives (1:1 with polyalcohol 5%, glucose, 2-deoxyglucose (2-deoxyG.), lactose, saccharose, fructose, glucuronic acid, polyethylene glycol (PEG), chondroitin-4-sulfate (ch.4-s.), chondroitin-6-sulfate (ch.-6-s.) dermatan sulfate (dermatan-s.) or dextran sulfate (dextran-s.)). After washing and staining of the adherent cells with Methyl violet the extinction was measured at 550 nm. (Bars represent the mean value±SD of two independent experiments (measured in triplicates)). The extinction of the controls was set to 1. Statistical significances were determined with Bonferroni's Multiple Comparison Test (**: p<0.01, ***<0.001).
U373 cells were incubated for one hour with Octenisept® (1:20 in medium) alone (G0) or with Octenisept® and different volumes of a 5% glucose solution (resulting final dilution 1:200-1:2 in Leibovitz medium).

[1] = Precipitation assay of Octenisept® with NaCl or carbohydrates; format: physicochemical; conditions: equal parts Octenisept® and diluent (5%), 4° C.
Method: The stability of the solubility of the components of Octenisept® in NaCl solution as an indicator for their interaction was determined through the analysis of the precipitates. After the co-incubation of Octenisept® with equal parts of 0.9% w/v NaCl or 5% carbohydrates in sterile aqua bidest for 3, 12, 24 and 72 hours at 4° C. the solutions were centrifuged at 2500 rpm for 5 minutes and the precipitate, if existing, was analyzed with the Zeiss inverted microscope with a digital camera with the METAVIEW micro-photography documentation system.

[2] = concentration series with glucose, FIG. 4

Row | Compound | effect on cell adhesion; additives: effect on the Octenisept® induced reduction (U373 cells) | other results
1 | O=CC[C@@H](O)[C@H](O)[C@H](O)CO [2-deoxyglucose] | improved | –
2 | O=C(CO)[C@@H](O)[C@H](O)[C@H](O)CO [fructose] | improved | –
3 | O=C[C@H](O)[C@@H](O)[C@H](O)[C@H](O)CO [glucose] | improved | effect of glucose addition on Octenisept® reduced cell adherence (U373 cells; 5% glucose solution, final dilution 1:200 or 1:100, FIG. 4): tendentially improved; optimal glucose addition, final concentration (U373 cells; [2]): 0.1%; optimal glucose addition, in the stock solution (U373 cells; [2]): 2%; optimal absolute glucose in the Octenisept solution (U373 cells; corresponds to dilution 1:20 of 5% glucose): 0.25%
4 | O=C[C@H](O)[C@@H](O)[C@H](O)[C@H](O)C(=O)O [glucuronic acid] | improved | effect on cell adhesion; additives: effect on the Octenisept® induced reduction (U373 cells; listed as Glucuronic acid): positive effect
5 | OC[C@H]1O[C@@H](O[C@H]2[C@H](O)[C@@H](O)C(O)O[C@@H]2CO)[C@H](O)[C@@H](O)[C@H]1O (some centres unmarked) [lactose] | improved | –
6 | OC[C@H]1O[C@@](CO)(O[C@H]2O[C@H](CO)[C@@H](O)[C@H](O)[C@H]2O)[C@@H](O)[C@@H]1O [saccharose] | improved; also recorded: without impairing the effect | –
7 | chondroitin sulfate | – | sediment / crystals / turbidity of Octenisept® mixed with diluent [1]: quick micro-crystalline or colloidal turbidity
8 | chondroitin-4-sulfate | significantly reduced the adhesion to under the values of NaCl | –
9 | chondroitin-6-sulfate | significantly reduced the adhesion to under the values of NaCl | –
10 | dermatan sulfate | significantly reduced the adhesion to under the values of NaCl | sediment / crystals / turbidity of Octenisept® mixed with diluent [1]: quick micro-crystalline or colloidal turbidity
11 | dextran sulfate | significantly reduced the adhesion to under the values of NaCl | –
12 | heparan sulfate | – | sediment / crystals / turbidity of Octenisept® mixed with diluent [1]: quick micro-crystalline or colloidal turbidity
13 | polyethylene glycol | improved | effect on cell adhesion; additives: effect on the Octenisept® induced reduction (U373 cells; listed as PEG): slight reduction of the positive effect
